The text below walks through data of US9663528B2, “Substituted 1,2,3,4,6,8,12,12a-octahydro-1,4-methanodipyrido[1,2-a:1',2'-d]pyrazines and methods for treating viral infections” (priority 2012, dated 2017).

Where two headings read alike, the source gives them in different places.

One data set deals with PXR (Homo sapiens (Human), UniProt O75469). Kind of data set: Human PXR activation assay (luciferase reporter gene assay, DPX2 cells). The data set is classed as cell-based. Conditions: for Emax at 24 h, 15 µM: human. The protocol:
A stably transformed tumor cell line (DPX2) was plated on 96-well microtiter plates. DPX2 cells harbor the human PXR gene (NR112) and a luciferase reporter gene linked to two promoters identified in the human CYP3A4 gene, namely XREM and PXRE. […] The number of viable cells was determined and the reporter gene activity was assessed. Positive control: […]
(A reporter such as luciferase makes a cellular process visible.)

In the next data set the test system is HIV-IIIb. Kind of data set: Antiviral assay in MT4 cells. It counts as cell-based. The following applies: MT4 cells infected with HIV-IIIb, 5 days incubation; read-out: EC50 nM in MT-4. The protocol:
For the antiviral assay utilizing MT4 cells, 0.4 μL of […] test concentration of 3-fold serially diluted compound in DMSO was added to 40 μL of cell growth medium (RPMI 1640, 10% FBS, 1% penicilline/Streptomycine, 1% L-Glutamine, 1% HEPES) in each well of 384-well assay plates (10 concentrations) in quidruplicate.
1 mL aliquots of 2×10^6 MT4 cells are pre-infected for 1 and 3 hours respectively at 37° C. with 25 μL (MT4) or of either cell growth medium (mock-infected) or a fresh 1:250 dilution of an HIV-IIIb concentrated ABI stock (0.004 m.o.i. for MT4 cells). Infected and uninfected cells are diluted in cell growth medium and 35 μL of 2000 (for MT4) cells is added to each well of the assay plates.
Assay plates were then incubated in a 37° C. incubator. After 5 days of incubation, 25 μL of 2× concentrated CellTiter-Glo™ Reagent (catalog #G7573, Promega Biosciences, Inc., Madison, Wis.) was added to each well of the assay plate. Cell lysis was carried out by incubating at room temperature for 2-3 minutes, and then chemiluminescence was read using the Envision reader (PerkinElmer).

For another data set, the system named is MT4 cells. Briefly: in vitro.
The next data set concerns the target OCT2 (Homo sapiens (Human), UniProt O15244). Briefly: OCT2 inhibition assay (14C-TEA uptake, OCT2-transfected MDCKII cells). The data set is classed as cell-based. Conditions: OCT2 mediated uptake of 14C-TEA (20 μM), MDCKII cells; read-out: IC50. The protocol: On assay day, cells were trypsinized and resuspended in Krebs-Henseleit Buffer (KHB), pH 7.4 at […]. Cells were preincubated for 15 min in assay plate before addition of test compound or substrate. Test compounds were serially diluted in DMSO and then spiked (2 μL) into in 0.4 mL KHB buffer containing wild-type or OCT2-transfected cells and incubated for 10 minutes. Assay was initiated with the addition of 0.1 mL of 100 μM ^14C-TEA in KHB buffer (20 μM final concentration after mixing). The concentration of TEA is based on the Km. After 10 minutes of incubation, the assay mixture was quenched with addition of 0.5 mL of ice-cold 1×PBS buffer. Samples were then centrifuged at 1000 rpm for 5 min and supernatants were removed. Wash steps were repeated four times with ice-cold PBS. Finally, the cell pellets were lysed with 0.2N NaOH and let sit at room temperature for at least 30 min to ensure complete lysis. Samples were then counted on liquid scintillation counter and dpm counts were used to perform the following calculations.

A short description of data set [1]: Pharmacokinetic analysis following intravenous administration to beagle dogs. The data set is classed as in vivo. Conditions: male, dog, 0.5 mg/kg; for Vd: read-out: Vss. The protocol: (§1) Pharmacokinetic analysis was performed on various test compounds following intravenous or oral administration to beagle dogs.
(§2) For pharmacokinetic analysis of intravenously administered compounds, the test compounds were formulated in 5% Ethanol, 55% PEG 300, and 40% water at 0.1 mg/mL for IV infusion. For pharmacokinetic analysis of orally administered compounds, the test compounds were formulated as an aqueous suspension in 0.1% Tween 20, 0.5% HPMC LV 100 in Di Water at 1 mg/kg.
(§3) Each dosing group consisted of 3 male, non-naïve purebred beagle dogs. At dosing, the animals weighed between 10 to 13 kg. The animals were fasted overnight prior to dose administration and up to 4 hr after dosing. For studies of intravenous administration, the test article was administered to the animals by intravenous infusion over 30 min. The rate of infusion was adjusted according to the body weight of each animal to deliver a dose of 0.5 mg/kg. For studies of oral administration, the test article was administered according to the body weight of each animal to deliver a dose of 1 mg/kg.
For pharmacokinetic analysis of intravenously administered compounds, serial venous blood samples (approximately 1 mL each) were taken from each animal at 0, 0.250, 0.483, 0.583, 0.750, 1.00, 1.50, 2.00, 4.00, 8.00, 12.0, and 24.0 hours after dosing. The blood samples were collected into Vacutainer™ tubes containing EDTA-K2 as the anti-coagulant and were immediately placed on wet ice pending centrifugation for plasma. An LC/MS/MS method was used to measure the concentration of the test compound in plasma. An aliquot of 100 μL of each plasma sample was added to a clean 96 well plate, and 400 μL of cold acetonitrile/internal standard solution (ACN)/(ISTD) was added. After protein precipitation, an aliquot of 110 μL of the supernatant was transferred to a clean 96-well plate and diluted with 300 μL of water. An aliquot of 25 μL of the above solution was injected into a TSQ Quantum Ultra LC/MS/MS system utilizing a Hypersil Gold C18 HPLC column (50×3.0 mm, 5 μm; Thermo-Hypersil Part #25105-053030). An Agilent 1200 series binary pump (P/N G1312A Bin Pump) was used for elution and separation, and an HTS Pal autosampler (LEAP Technologies, Carrboro, N.C.) was used for sample injection. A TSQ Quantum Ultra triple quadrupole mass spectrometer was utilized in selective reaction monitoring mode (Thermo Finnigan, San Jose, Calif.). Liquid chromatography was performed using two mobile phases: mobile phase A contained 1% acetonitrile in 2.5 mM ammonium formate aqueous solution with pH of 3.0, and mobile phase B contained 90% acetonitrile in 10 mM ammonium formate with pH of 4.6. Non-compartmental pharmacokinetic analysis was performed on the plasma concentration-time data. The resulting data are shown in the first three columns of Table 4. In Table 4, CL refers to clearance, which characterizes the rate at which drug is removed from plasma. The lower the clearance of a drug is, the longer the elimination half-life is in the body. Vss refers to the steady state volume of distribution and indicates how well a drug is distributed into the tissues. The larger the Vss is, the longer the elimination half-life is in the body. MRT refers to mean residence time, which is a measure of the average time molecules exist in the body.

The nature of another data set: in vitro. Conditions: human.
A short description of data set [2]: Pharmacokinetic analysis following oral administration to beagle dogs. The data set is classed as in vivo. The following applies: 1 mg/kg. On the procedure:
as §1, §2, §3
For pharmacokinetic analysis of orally administered compounds, serial venous blood samples (approximately 0.3 mL each) were taken from each animal at time points of 0, 0.25, 0.50, 1.0, 2.0, 4.0, 6.0, 8.0, 12.0 and 24.0 hours after dosing. Blood samples were collected, prepared and analyzed in a similar way to the intravenous studies described above. Non-compartmental pharmacokinetic analysis was performed on the plasma concentration-time data. The resulting data are shown in the last three columns of Table 4. In Table 4, F (%) refers to oral bioavailability. Cmax refers to the peak plasma concentration of the compound after administration. AUC refers to area under the curve and is a measure of total plasma exposure of the indicated compound.

[3] abbreviates: 15 μM, relative to maximum fold induction by 10 or 20 μM rifampicin, DPX2 cells, 24 hours, read-out: % Emax at 15 μM.
[4] abbreviates: plasma, beagle dogs, IV infusion over 30 min, read-out: CL (converted).
[5] abbreviates: plasma, beagle dogs, IV infusion over 30 min, read-out: MRT.
[6] abbreviates: beagle dogs, oral, aqueous suspension.
[7] abbreviates: male, dog, plasma, beagle dogs, oral, aqueous suspension, read-out: AUC (μM*h) aqueous suspension.
[8] abbreviates: male, dog, plasma, beagle dogs, oral, aqueous suspension, read-out: Cmax (μM) aqueous suspension.
Setting [9] is: plasma, beagle dogs, IV infusion over 30 min.

Chain of OCT2 (O15244 whole entry): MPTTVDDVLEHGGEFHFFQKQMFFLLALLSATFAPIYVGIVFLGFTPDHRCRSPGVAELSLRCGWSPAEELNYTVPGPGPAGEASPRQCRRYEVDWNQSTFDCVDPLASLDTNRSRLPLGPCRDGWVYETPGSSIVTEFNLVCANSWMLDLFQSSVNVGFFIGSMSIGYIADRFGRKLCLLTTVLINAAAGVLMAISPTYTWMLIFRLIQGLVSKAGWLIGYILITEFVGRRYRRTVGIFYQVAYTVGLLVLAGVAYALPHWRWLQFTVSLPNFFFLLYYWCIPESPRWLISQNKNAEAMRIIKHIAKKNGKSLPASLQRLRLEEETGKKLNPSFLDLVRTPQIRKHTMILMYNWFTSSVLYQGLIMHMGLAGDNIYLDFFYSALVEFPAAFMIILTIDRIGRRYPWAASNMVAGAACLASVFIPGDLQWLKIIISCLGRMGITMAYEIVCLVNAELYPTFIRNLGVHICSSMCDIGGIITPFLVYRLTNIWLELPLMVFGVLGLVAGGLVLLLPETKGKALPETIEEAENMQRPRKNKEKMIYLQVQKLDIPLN
Chain of PXR (O75469 whole entry): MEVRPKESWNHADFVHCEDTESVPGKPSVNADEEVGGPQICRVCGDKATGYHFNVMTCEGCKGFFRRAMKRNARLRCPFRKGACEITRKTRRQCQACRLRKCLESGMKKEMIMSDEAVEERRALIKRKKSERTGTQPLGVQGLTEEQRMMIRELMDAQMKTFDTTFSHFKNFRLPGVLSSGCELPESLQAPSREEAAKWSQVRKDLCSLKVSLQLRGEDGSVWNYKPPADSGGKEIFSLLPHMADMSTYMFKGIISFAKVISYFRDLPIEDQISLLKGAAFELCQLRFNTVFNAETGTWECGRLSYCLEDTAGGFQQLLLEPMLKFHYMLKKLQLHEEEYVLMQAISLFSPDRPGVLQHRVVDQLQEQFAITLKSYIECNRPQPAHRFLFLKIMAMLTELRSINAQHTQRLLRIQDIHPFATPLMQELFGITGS

For the compound `O=C(NCc1c(F)cc(F)cc1F)c1cn2c(c(O)c1=O)C(=O)N1[C@H]3CC[C@H](CC3)[C@@H]1C2` [Compound 102, (1S,4S,12aR)-7-hydroxy-6,8-dioxo-N-(2,4,6-trifluorobenzyl)-1,2,3,4,6,8,12,12a-octahydro-1,4-ethanodipyrido[1,2-a:1′,2′-d]pyrazine-9-carboxamide], the “% Emax at 15 μM” value on PXR (15 μM, relative to maximum fold induction by 10 or 20 μM rifampicin, DPX2 cells, 24 hours) turned out to be 123%. Further, in the data set with HIV-IIIb, the EC50 (usually the concentration needed to bring the measured effect to its halfway point) was 2.3 nM. The compound further had a CC50 with MT4 cells of 12 µM.

Regarding `O=C(NCc1ccc(F)cc1F)c1cn2c(c(O)c1=O)C(=O)N1[C@H]3CC[C@H](C3)[C@@H]1C2` [Compound 47, (1R,4S,12aR)-N-(2,4-difluorobenzyl)-7-hydroxy-6,8-dioxo-1,2,3,4,6,8,12,12a-octahydro-1,4-methanodipyrido[1,2-a:1′,2′-d]pyrazine-9-carboxamide], the Emax – broadly, the maximal effect, on the per cent scale that the assay sets – at 24 h, 15 µM at PXR (setting [3]) turned out to be 11%. For the same compound, the IC50 (in general, the midpoint of a concentration-inhibition curve) at OCT2 stood at 6.2 µM. Besides, the Vd in data set [1] (in vivo, beagle dogs, IV infusion over 30 min) came out at 0.1 L/kg. Also, in data set [1] (setting [4]), the clearance was 0.233 mL/min/kg. In addition, the MRT (in general, a mean duration of stay, worked out from the concentration-time curve) in data set [1] (setting [5]) turned out to be 7.4 h. The CC50 at 5 days in “in vitro” (CC50 nM in MT-4) was determined as 11300 nM. In data set [2] (setting [6]), the “F (%) aqueous suspension” value was 12.6%. Also, the AUC (usually concentration integrated over time) in data set [2] (setting [7]) worked out at 20.4 µM·h. For the same compound, the Cmax (in general, the highest concentration seen after dosing) in data set [2] (setting [8]) worked out at 2.8 µM.

Take `O=C(NCc1c(F)cc(F)cc1F)c1cn2c(c(O)c1=O)C(=O)N1[C@H]3CC[C@H](CC3)[C@H]1C2` [Compound 101, (11R,4R,12aS)-7-hydroxy-6,8-dioxo-N-(2,4,6-trifluorobenzyl)-1,2,3,4,6,8,12,12a-octahydro-1,4-ethanodipyrido[1,2-a:1′,2′-d]pyrazine-9-carboxamide]: the EC50 in the data set with HIV-IIIb came to 2.1 nM. This compound yielded a CC50 with MT4 cells of 11.6 µM.

`O=C(NCc1ccc(F)cc1F)c1cn2c(c(O)c1=O)C(=O)N1[C@H]3CC[C@H](C3)O[C@@H]1C2` [Compound 2, (2R,5S,13aR)-N-(2,4-difluorobenzyl)-8-hydroxy-7,9-dioxo-2,3,4,5,7,9,13,13a-octahydro-2,5-methanopyrido[1′,2′:4,5]pyrazino[2,1-b][1,3]oxazepine-10-carboxamide]: the Emax at 24 h, 15 µM on PXR amounted to 4.5%. Besides, the IC50 at OCT2 amounted to 0.24 µM. In data set [1] (beagle, in vivo, iv), this compound showed a mean residence time MRT of 6.5 h and a clearance of 0.5 mL/min/kg. Further, the Vd in data set [1] (setting [9]) is 0.2 L/kg. In “in vitro” (CC50 nM in MT-4), this compound came in with a CC50 at 5 days of 3110 nM. Besides, in data set [2] (male, beagle, dog, in vivo, po), the AUC stood at 66.1 µM·h, the peak level (Cmax) was 7.8 µM and the “F (%) aqueous suspension” value is reported as 40.7%.

Regarding `O=C(NC1(c2ccc(F)cc2F)CC1)c1cn2c(c(O)c1=O)C(=O)N1[C@@H]3CC[C@@H](C3)O[C@H]1C2` [Compound 30, (2S,5R,13aS)-N-(1-(2,4-difluorophenyl)cyclopropyl)-8-hydroxy-7,9-dioxo-2,3,4,5,7,9,13,13a-octahydro-2,5-methanopyrido[1′,2′:4,5]pyrazino[2,1-b][1,3]oxazepine-10-carboxamide], the EC50 in the data set with HIV-IIIb worked out at 4 nM. Moreover, the CC50 with MT4 cells (human, 5 days) amounted to 6.83 µM.

With `O=C(NCc1c(F)cc(F)cc1F)c1cn2c(c(O)c1=O)C(=O)N1[C@H]3CC[C@H](C3)O[C@@H]1C2` [Compound 42, (2R,5S,13aR)-8-hydroxy-7,9-dioxo-N-(2,4,6-trifluorobenzyl)-2,3,4,5,7,9,13,13a-octahydro-2,5-methanopyrido[1′,2′:4,5]pyrazino[2,1-b][1,3]oxazepine-10-carboxamide], at PXR (setting [3]), the Emax at 24 h, 15 µM was 21%. For the same compound, the IC50 at OCT2 worked out at 0.487 µM. In addition, the clearance in data set [1] (setting [4]) is 0.333 mL/min/kg. Further, the MRT in data set [1] (setting [5]) is 7.1 h. Also, the Vd in data set [1] (setting [9]) is 0.15 L/kg. The compound also returned a CC50 at 5 days in “in vitro” (MT-4 cells, mock-infected, CC50 nM in MT-4, MT-4 cells, 5 days incubation) of 3540 nM. Moreover, the “F (%) aqueous suspension” value in data set [2] (setting [6]) is reported as 28.0%. Besides, in data set [2] (setting [7]), the exposure (AUC) worked out at 28.6 µM·h. The Cmax in data set [2] (setting [8]) amounted to 4.5 µM.
